Source: US20020110808A1, “Toxicant-induced differential gene expression” (priority 2000, published 2002)
Read-outs that look alike come from different tables or passages of the source.

Experiments:
HepG2 cells [1] = assay: Quantitative RT-PCR (TaqMan); format: cell-based, human
Description: Primers and probes were designed using Primer Express software (Perkin-Elmer). TaqMan probes (Perkin-Elmer) were synthesized with reporter dye 6FAM at the 5′ end and quencher TAMRA at the 3′ end. RNA template concentrations were determined by absorbance at 260 nm. Reactions were performed as described […], using 2.5 ng RNA, 300 nM each PCR primer, and 150 nM Taqman probes. Control reactions were set up with reverse transcriptase or template omitted. Reactions were run on an ABI 7700 instrument (Perkin-Elmer) using the following cycling conditions: reverse transcription at 48° C. for 30 min; inactivation of reverse transcriptase at 95° C. for 10 min; 40 cycles of denaturation at 94° C. for 15 sec and extension at 60° C. for 1 min. Changes in expression were calculated from the displacement of the amplification curve in the treated sample relative to the control.

HepG2 cells [2] = assay: Differential display PCR (DD-PCR) of mRNA from treated cells; format: cell-based, human; conditions: visual inspection, not confirmed
Description: For each reverse transcription reaction, 50 ng of mRNA was incubated with a 3′ Anchored Primer (1 μM) at 65° C. for 5 minutes. The tubes were chilled and spun briefly. […] The final volume was 20 μl. Tubes were heated to 25° C. for 10 min, 42° C. for 60 min, and 70° C. for 15 min. The cDNA produced was either used immediately or stored at −20° C.
The DD-PCR was performed under the conditions recommended by Genomyx Corporation: 95° C. for 2 min; 4 cycles of 92° C. for 15 sec, 46° C. for 30 sec, 72° C. for 2 min; 25 cycles of 92° C. for 15 sec, 60° C. for 30 sec, 72° C. for 2 min; and one cycle of 72° C. for 7 min, followed by cooling at 4° C.
Stop solution (11 μl) was added to each reaction. The tubes were then heated for 2 min at 95° C. A 3-μl aliquot of each reaction was run on a 4.5% denaturing polyacrylamide gel for 16 hours at 800 V, 50° C. Under these conditions, bands ranging from 300 to 1200 base-pairs were well-resolved. Band excision and reamplification were performed according to the instructions given in the Genomyx Corporation protocol. The reamplification reaction mixture was added directly to the excised band and the PCRs were performed under the same conditions as the original DD-PCR, with the exceptions that the M13R(−48) and T7 primers (SEQ ID NO: 3 AND SEQ ID NO: 2, respectively) were used instead of the original anchored and arbitrary primers and [α-^33P]dATP was omitted. The PCR products were purified with S-400 HR microspin columns (Pharmacia).

HepG2 cells [3] = assay: BrdU incorporation cell proliferation assay; format: cell-based
Description: HepG2 cells (see e.g., Aden et al., Nature 282:615-616 (1979)) (ATCC HB-8065) were maintained in DMEM/F-12 medium with 10% fetal bovine serum and 1% antibiotic/antimycotic. For routine culturing and mRNA preps, cells were grown in 75 cm^2 flasks and split every 4-5 days. For plate assays, cells were plated in 96-well microtiter plates at 1×10^5 cells per well in 100 μl of growth medium.
(§1) Depending on the desired exposure time, cell treatments began 3 or 4 days after splitting or plating. At this time, the cells were near or at confluency. […] Cell treatments were at 37° C.
Uptake of 5-bromo-2′-deoxyuridine (BrdU) was measured using the Cell Proliferation ELISA kit from Boehringer-Mannheim (Indianapolis, Ind.).
Cell proliferation assays based on measurement of BrdU incorporation were performed according to the manufacturer's instructions (Boehringer Mannheim “Cell Proliferation ELISA Kit”).

HepG2 cells [4] = assay: Annexin V assay for apoptosis; format: cell-based, human; conditions: 20 mM acetaminophen, 16 mM caffeine, 100 mM thioacetamide, by 24 hr
Description: Translocation of phosphatidyl serine to the cell membrane was measured by affinity binding to annexin V using the Apotest Biotin kit from NeXins Research B.V. (The Netherlands). HepG2 cells were cultured as above and plated into Cytostar-T scintillating microplates (Amersham) at 10^6 cells/well and grown for 3 days prior to treatment as above. Following treatment, 50 μl/well of 4 μg/ml annexin V-biotin in 2× Ca^2+ binding buffer was added. Wells with no annexin V-biotin were included as background controls. Following incubation for 20 min at room temperature, 50 μl/well of 0.5 μCi [^35S] streptavidin (Amersham) in 2× Ca^2+ binding buffer was added and incubated for 2 hrs at room temperature with gentle shaking. Plates were spun down at 1,100 rpm for 8 min and read on a Packard TopCount instrument (see e.g., Vermes et al., J. Immunol. Methods 185:81-93 (1995)).

HepG2 cells [5] = assay: Caspase-3 assay for apoptosis; format: cell-based, human; conditions: 100 mM thioacetamide, 24 hr
Description: Caspase-3 assay for apoptosis. Activation of caspase-3, an intracellular cysteine protease, was measured by cleavage of a caspase-specific peptide using the Caspase-3 Colorimetric Assay kit from R&D Systems. HepG2 cells were cultured and treated as above in T-75 tissue culture flasks. Following treatment, cells were scraped off and spun down. The assay was performed according to the kit instructions using 350 μl/flask of lysis buffer.

HepG2 cells [6] = assay: Cell morphology after toxicant treatment; conditions: 24 hr, 20 mM acetaminophen, 16 mM caffeine or 100 mM thioacetamide
Description: as §1
The general strategy used for identifying toxicant-induced gene expression changes is outlined in Table 2.

Structure (SMILES) | TTF-1 interacting peptide 21 down-regulation by RT-PCR (HepG2 cells [1]; acetaminophen, 12 hr) [fold] | Number of difference bands on DD-PCR gel, Decreased (HepG2 cells [2]; acetaminophen 0.02 mM) | Number of difference bands on DD-PCR gel, Increased (HepG2 cells [2]; acetaminophen 0.02 mM) | Number of difference bands on DD-PCR gel, Decreased (HepG2 cells [2]; acetaminophen 0.2 mM) | Number of difference bands on DD-PCR gel, Increased (HepG2 cells [2]; acetaminophen 0.2 mM) | Number of difference bands on DD-PCR gel, Decreased (HepG2 cells [2]; acetaminophen 2 mM) | Number of difference bands on DD-PCR gel, Increased (HepG2 cells [2]; acetaminophen 2 mM) | Number of difference bands on DD-PCR gel, Decreased (HepG2 cells [2]; acetaminophen 20 mM) | Number of difference bands on DD-PCR gel, Increased (HepG2 cells [2]; acetaminophen 20 mM) | inhibition at 20000 µM (HepG2 cells [3]; Homo sapiens, HepG2, 24 h; read-out: Inhibition of BrdU uptake (cell proliferation)) [%] | IC50 (HepG2 cells [3]; Homo sapiens, HepG2; read-out: IC50, BrdU incorporation in HepG2 cells) [mM] | Expression ratio (treated/control), RT-PCR: MT-1G (H53340) (HepG2 cells [1]; Thioacetamide (24 hr)) | Expression ratio (treated/control), RT-PCR: MT-2 (R16596) (HepG2 cells [1]; Thioacetamide (24 hr)) | Expression ratio (treated/control), RT-PCR: MT-1H (H77766) (HepG2 cells [1]; Thioacetamide (24 hr), not detectable in control samples) | Apoptosis, annexin V assay (HepG2 cells [4]) | Caspase-3 activation (HepG2 cells [5]) | Cell morphology of treated cells (HepG2 cells [6]) | IC50 (HepG2 cells [3]; Homo sapiens, HepG2, read-out: IC50, BrdU incorporation in HepG2 cells) [mM]
CC(=O)Nc1ccc(O)cc1 [acetaminophen] | ~2 | 0 | 0 | 0 | 0 | 1 | 4 | 16 | 18 | 67 to 80 | ~5 | – | – | – | – | – | – | –
CC(=N)S [thioacetamide] | – | – | – | – | – | – | – | – | – | – | – | 3.1 | 7.4 | >1000 | induces the greatest response | significant activation | somewhat dense and grainy | 57
